The source of these data is patent US20110039819A1, “SUBSTITUTED PHENOXYBENZAMIDES” (priority 2008, published 2011).

The structures appear in SMILES notation. pIC50: −log10 of the molar value. Where two headings read alike, the source gives them in different places.

For this assay, the target named is T1, MEK1 (Homo sapiens, UniProt Q02750).
T1 construct: purchased Millipore 14-420 (GST-MEK1); 14-703 (Cot1); host or cells: Cot1: insect cells (SF21)
The assay is described as follows: MEK1 activation kinase assay (Assay 2, HTRF; Cot1 phosphorylates GST-MEK1). In kind it is biochemical. On the procedure:
MEK1 Activation Kinase Assay
The kinase Cot1 activates MEK1 by phosphorylating its activation loop. The inhibitory activity of compounds of the present invention on this activation of MEK1 was quantified employing the HTRF assay described in the following paragraphs.
As substrate for the kinase reaction the unactive C-terminally His6-tagged GST-MEK1 fusion protein (Millipore cat. no 14-420) was used.
Then the kinase reaction was started by the addition of 2 μl of a solution of Cot1 in assay buffer and the resulting mixture was incubated for a reaction time of 20 min at 22° C. The concentration of Cot1 in the assay was adjusted depending of the activity of the enzyme lot and was chosen appropriate to have the assay in the linear range, typical enzyme concentrations were in the range of about 2 ng/μl (final conc. in the 5 μl assay volume).
The resulting mixture was incubated 2 h at 22° C. to allow the binding of the phosphorylated GST-MEK1 to the anti-GST-XL665 and the Eu-cryptate labelled anti-phospho-MEK 1/2 antibody. Subsequently the amount of Ser217/Ser221-phosphorylated substrate was evaluated by measurement of the resonance energy transfer from the Eu-Cryptate-labelled anti-phospho-MEK antibody to the anti-GST-XL665.

Where [1] appears, read: mean values from 2 or more measurements, read-out: Assay 2 IC50 values (nanomolar) (MEK1 activation kinase assay) (values are mean values from 2 or more measurements).
Where [2] appears, read: representative example compounds, read-out: IC50 in MEK1 activation kinase assay.

T1 sequence (Q02750 whole entry): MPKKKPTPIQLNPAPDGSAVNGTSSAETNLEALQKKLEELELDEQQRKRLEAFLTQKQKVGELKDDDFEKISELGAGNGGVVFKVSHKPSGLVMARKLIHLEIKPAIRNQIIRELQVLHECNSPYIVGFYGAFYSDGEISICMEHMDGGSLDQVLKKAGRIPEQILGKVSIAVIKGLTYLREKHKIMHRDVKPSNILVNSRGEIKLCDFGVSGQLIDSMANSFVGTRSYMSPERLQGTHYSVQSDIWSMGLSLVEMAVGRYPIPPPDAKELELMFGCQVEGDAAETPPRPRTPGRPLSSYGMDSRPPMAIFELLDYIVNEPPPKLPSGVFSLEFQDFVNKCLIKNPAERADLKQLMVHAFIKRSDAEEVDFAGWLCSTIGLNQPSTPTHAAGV

Turning to `CC(C)(O)C(O)CCOc1cc(F)cc(Nc2ccc(I)cc2F)c1C(N)=O` (single isomer, unassigned) [Example 6.3, 2-(3,4-Dihydroxy-4-methyl-pentyloxy)-4-fluoro-6-(2-fluoro-4-iodo-phenylamino)-benzamide], under setting [1], the pIC50 was 7.51.

In the case of `CC(C)(O)C(O)CCOc1cc(F)cc(Nc2ccc(I)cc2F)c1C(N)=O` (single isomer, unassigned) [Example 6.4, 2-(3,4-Dihydroxy-4-methyl-pentyloxy)-4-fluoro-6-(2-fluoro-4-iodo-phenylamino)-benzamide], the pIC50 under setting [1] is 7.53.

Regarding `CC(O)(CO)CCOc1cc(F)cc(Nc2ccc(I)cc2F)c1C(N)=O` (single isomer, unassigned) [Example 6.5, 2-(3,4-Dihydroxy-3-methyl-butoxy)-4-fluoro-6-(2-fluoro-4-iodo-phenylamino)-benzamide], under setting [1], the pIC50 was 6.76.

Consider `CC(O)(CO)CCOc1cc(F)cc(Nc2ccc(I)cc2F)c1C(N)=O` (single isomer, unassigned) [Example 6.6, 2-(3,4-Dihydroxy-3-methyl-butoxy)-4-fluoro-6-(2-fluoro-4-iodo-phenylamino)-benzamide], for which, under setting [1], the pIC50 is 7.10.

Regarding `CN(C)S(=O)(=O)Nc1cccc(Oc2cc(F)cc(Nc3ccc(I)cc3F)c2C(N)=O)c1` [Example 2.1, 2-[3-[[(dimethylamino)sulfonyl]amino]phenoxy]-4-fluoro-6-[(2-fluoro-4-iodophenyl)amino]-benzamide], under setting [1], the pIC50 is 7.66.

With `CN(C)S(=O)(=O)Nc1cccc(Oc2cc(F)cc(Nc3ccc(I)cc3)c2C(N)=O)c1` [Example 2.16, 2-{3-[(dimethylsulfamoyl)amino]phenoxy}-4-fluoro-6-[(4-iodophenyl)amino] benzamide], the pIC50 under setting [1] was 7.33 and the pIC50 under setting [2] is above 6.00.

`Cc1cc(I)ccc1Nc1cc(F)cc(Oc2cccc(NS(=O)(=O)N(C)C)c2)c1C(N)=O` [Example 2.17, 2-{3-[(dimethylsulfamoyl)amino]phenoxy}-4-fluoro-6-[(4-iodo-2-methylphenyl)amino] benzamide]: the pIC50 by setting is: under setting [1], 7.40; under setting [2], above 6.00.

`CC(C)(C)OC(=O)Nc1cccc(Oc2c(F)c(F)c(F)c(Nc3ccc(I)cc3F)c2C(N)=O)c1` [Example 2.19, {3-[2-Carbamoyl-4,5,6-trifluoro-3-(2-fluoro-4-iodo-phenylamino)-phenoxy]-phenyl}-carbamic acid tert-butyl ester]: the pIC50 runs as follows: under setting [1], 6.82; under setting [2], above 6.00.

In the case of `CN(C)S(=O)(=O)Nc1cccc(Oc2c(F)c(F)c(F)c(Nc3ccc(I)cc3F)c2C(N)=O)c1` [Example 2.20, 2-{3-[(dimethylsulfamoyl)amino]phenoxy}-3,4,5-trifluoro-6-[(2-fluoro-4-iodophenyl)amino]-benzamide], the negative logarithm of the IC50 (pIC50) under setting [1] is 7.78 and the pIC50 under setting [2] is above 6.00.

As for `CC(=O)Nc1ccc(Oc2cc(F)cc(Nc3ccc(I)cc3F)c2C(N)=O)cc1` [Example 4.5, 2-(4-Acetylamino-phenoxy)-4-fluoro-6-(2-fluoro-4-iodo-phenylamino)-benzamide], the pIC50 under setting [2] was above 6.00.

Consider `CNC(=O)c1c(Nc2ccc(I)cc2F)cc(F)cc1Oc1cccc(NS(=O)(=O)N(C)C)c1` [Example 4.17, 2-[3-[[(dimethylamino)sulfonyl]amino]phenoxy]--4-fluoro-6-[(2-fluoro-4-iodophenyl)amino]-N-methyl-benzamide], for which the pIC50 under setting [1] was 7.21.

On to `CN(C)S(=O)(=O)Nc1cccc(Oc2cc(F)cc(Nc3ccc(I)cc3F)c2C(=O)NCCO)c1` [Example 4.18, 2-[3-[[(dimethylamino)sulfonyl]amino]phenoxy]--4-fluoro-6-[(2-fluoro-4-iodophenyl)amino]-N-(2-hydroxy-ethyl)-benzamide], for which the negative logarithm of the IC50 (pIC50) under setting [1] was 7.16.

For the compound `CN(C)S(=O)(=O)Nc1cccc(Oc2cc(F)cc(Nc3ccc(I)cc3F)c2C(=O)NCCCO)c1` [Example 4.19], the pIC50 under setting [1] is 7.10.

Turning to `C[C@H](CO)NC(=O)c1c(Nc2ccc(I)cc2F)cc(F)cc1Oc1cccc(NS(=O)(=O)N(C)C)c1` [Example 4.20, 2-[3-[[(dimethylamino)sulfonyl]amino]phenoxy]--4-fluoro-6-[(2-fluoro-4-iodophenyl)amino]-N-((R)-2-hydroxy-1-methyl-ethyl)-benzamide], the pIC50 under setting [1] is 7.05.

With `C[C@@H](CO)NC(=O)c1c(Nc2ccc(I)cc2F)cc(F)cc1Oc1cccc(NS(=O)(=O)N(C)C)c1` [Example 4.21, 2-[3-[[(dimethylamino)sulfonyl]amino]phenoxy]--4-fluoro-6-[(2-fluoro-4-iodophenyl)amino]-N-((S)-2-hydroxy-1-methyl-ethyl)-benzamide], the pIC50 under setting [1] is 6.61.

As to `C[C@@H](O)CNC(=O)c1c(Nc2ccc(I)cc2F)cc(F)cc1Oc1cccc(NS(=O)(=O)N(C)C)c1` [Example 4.22, 2-[3-[[(dimethylamino)sulfonyl]amino]phenoxy]--4-fluoro-6-[(2-fluoro-4-iodophenyl)amino]-N-((R)-2-hydroxy-propyl)-benzamide], the pIC50 under setting [1] was 6.79.

With `C[C@H](O)CNC(=O)c1c(Nc2ccc(I)cc2F)cc(F)cc1Oc1cccc(NS(=O)(=O)N(C)C)c1` [Example 4.23, 2-[3-[[(dimethylamino)sulfonyl]amino]phenoxy]--4-fluoro-6-[(2-fluoro-4-iodophenyl)amino]-N-((S)-2-hydroxy-propyl)-benzamide], the pIC50 under setting [1] is 6.88.

Regarding `CN1CCC[C@H]1COc1cc(F)cc(Nc2ccc(I)cc2F)c1C(N)=O` [Example 4.25, 4-Fluoro-2-(2-fluoro-4-iodo-phenylamino)-6-((S)-1-methyl-pyrrolidin-2-ylmethoxy)-benzamide], the pIC50 is, setting by setting: under setting [1], 6.74; under setting [2], above 6.00.

For `Cn1cc(Oc2cc(F)cc(Nc3ccc(I)cc3F)c2C(N)=O)cn1` [Example 4.27, 4-Fluoro-2-(2-fluoro-4-iodo-phenylamino)-6-(1-methyl-1H-pyrazol-4-yloxy)-benzamide], the negative-log IC50 (pIC50) was 6.59 under setting [1] and above 6.00 under setting [2].

On to `NC(=O)c1c(Nc2ccc(I)cc2F)cc(F)cc1Oc1cccc(CS(N)(=O)=O)c1` [Example 4.33, 4-Fluoro-2-(2-fluoro-4-iodo-phenylamino)-6-(3-sulfamoylmethyl-phenoxy)-benzamide], for which the pIC50 under setting [1] is 7.50 and the pIC50 under setting [2] is above 6.00.

`CS(=O)(=O)Cc1cccc(Oc2cc(F)cc(Nc3ccc(I)cc3F)c2C(N)=O)c1` [Example 4.34, 4-Fluoro-2-(2-fluoro-4-iodo-phenylamino)-6-(3-methane-sulfonylmethyl-phenoxy)-benzamide]: the pIC50 under setting [1] is 7.63 and the negative logarithm of the IC50 (pIC50) under setting [2] is above 6.00.

Take `NC(=O)c1cccc(Oc2cc(F)cc(Nc3ccc(I)cc3F)c2C(N)=O)c1` [Example 4.37, 2-(3-Carbamoyl-phenoxy)-4-fluoro-6-(2-fluoro-4-iodo-phenylamino)-benzamide]: the pIC50 was 7.58 under setting [1] and above 6.00 under setting [2].

Turning to `CCCNS(=O)(=O)Nc1cccc(Oc2cc(F)cc(Nc3ccc(I)cc3F)c2C(N)=O)c1` [Example 5.2, 2-[3-[[(propylamino)sulfonyl]amino]phenoxy]-4-fluoro-6-[(2-fluoro-4-iodophenyl)amino]-benzamide], under setting [1], the pIC50 was 7.62.

Regarding `CC(=O)Nc1cccc(Oc2cc(F)cc(Nc3ccc(I)cc3F)c2C(N)=O)c1` [Example 5.3, 2-(3-Acetylamino-phenoxy)-4-fluoro-6-(2-fluoro-4-iodo-phenylamino)-benzamide], the pIC50 is, setting by setting: under setting [1], 7.55; under setting [2], above 6.00.

As for `NC(=O)c1c(Nc2ccc(I)cc2F)cc(F)cc1Oc1cccc(NS(N)(=O)=O)c1` [Example 5.7, 2-[3-[[(amino)sulfonyl]amino]phenoxy]-4-fluoro-6-[(2-fluoro-4-iodophenyl)amino]-benzamide], the pIC50 under setting [1] was 7.73.

On to `NC(=O)c1c(Nc2ccc(I)cc2F)cc(F)cc1Oc1cccc(NS(=O)(=O)N2CCOCC2)c1` [Example 5.24, 4-Fluoro-2-(2-fluoro-4-iodo-phenylamino)-6-[3-(morpholine-4-sulfonylamino)-phenoxy]-benzamide], for which the pIC50 runs as follows: under setting [1], 7.59; under setting [2], above 6.00.

Turning to `CN(C)C(=O)N1CCN(CCOc2cc(F)cc(Nc3ccc(I)cc3F)c2C(N)=O)CC1` [Example 5.30, 4-{2-[2-Carbamoyl-5-fluoro-3-(2-fluoro-4-iodo-phenylamino)-phenoxy]-ethyl}-piperazine-1-carboxylic acid dimethylamide], the pIC50 under setting [1] is 6.86.

In the case of `CS(=O)(=O)N1CCN(CCOc2cc(F)cc(Nc3ccc(I)cc3F)c2C(N)=O)CC1` [Example 5.31, 4-Fluoro-2-(2-fluoro-4-iodo-phenylamino)-6-[2-(4-methanesulfonyl-piperazin-1-yl)-ethoxy]-benzamide], the pIC50 under setting [1] is 6.82.

For `CS(=O)(=O)N1CCC[C@@H]1COc1cc(F)cc(Nc2ccc(I)cc2F)c1C(N)=O` [Example 5.32, 4-Fluoro-2-(2-fluoro-4-iodo-phenylamino)-6-((R)-1-methanesulfonyl-pyrrolidin-2-ylmethoxy)-benzamide], the pIC50 under setting [1] is 7.45.

As for `CCS(=O)(=O)N1CCC[C@@H]1COc1cc(F)cc(Nc2ccc(I)cc2F)c1C(N)=O` [Example 5.33, 2-((R)-1-Ethanesulfonyl-pyrrolidin-2-ylmethoxy)-4-fluoro-6-(2-fluoro-4-iodo-phenylamino)-benzamide], the negative-log IC50 (pIC50) under setting [1] is 7.04.
